Results published in the supplement of paper PMC6045584.
± gives the standard deviation of the averaged measurements.

What was measured:
[1] = compound: CCN(CC)CCCCNc1ncc2cc(-c3cc(OC)cc(OC)c3)c(NC(=O)NC(C)(C)C)nc2n1; test: surviving fraction relative to DMSO-only wells; higher = less growth inhibition; conditions: exposure time: 5 days
In short: (§1)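 Luminescence normalised to the median of DMSO-only wells defines surviving fraction, with viability read by CellTiter-Glo. Signal was recorded after 10 minutes at room temperature, once log-phase tumour cell lines seeded at 250–500 cells per well in 384-well plates had spent 24 hours settling and then five days under continuous exposure to inhibitors at 0.5, 1, 5, 10, 50, 100, 500 and 1000 nM.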

NUTLIN3 = compound: COc1ccc(C2=N[C@@H](c3ccc(Cl)cc3)[C@@H](c3ccc(Cl)cc3)N2C(=O)N2CCNC(=O)C2)c(OC(C)C)c1 [NUTLIN3]; test: as above; conditions: exposure time: 5 days
In short: as §1

Test System | surviving fraction ([1]; 0.5 nM) | surviving fraction ([1]; 1 nM) | surviving fraction ([1]; 5 nM) | surviving fraction ([1]; 10 nM) | surviving fraction ([1]; 50 nM) | surviving fraction ([1]; 100 nM) | surviving fraction ([1]; 500 nM) | surviving fraction ([1]; 1000 nM) | surviving fraction (NUTLIN3; 0.5 nM) | surviving fraction (NUTLIN3; 1 nM) | surviving fraction (NUTLIN3; 5 nM) | surviving fraction (NUTLIN3; 10 nM) | surviving fraction (NUTLIN3; 50 nM) | surviving fraction (NUTLIN3; 100 nM) | surviving fraction (NUTLIN3; 500 nM) | surviving fraction (NUTLIN3; 1000 nM)
CAL72 BONE | 1.053 ± 0.0092 | 1.08 ± 0.054 | 1.08 ± 0.082 | 1.01 ± 0.024 | 0.833 ± 0.038 | 0.484 ± 0.013 | 0.281 ± 0.022 | 0.208 ± 0.026 | 1.09 ± 0.029 | 1.07 ± 0.033 | 1.1 ± 0.037 | 1.08 ± 0.055 | 1.08 ± 0.027 | 1.13 ± 0.043 | 1.1 ± 0.084 | 1.11 ± 0.024
CAL120 BREAST | 0.933 ± 0.032 | 0.918 ± 0.031 | 0.9335 ± 0.0035 | 0.928 ± 0.023 | 0.852 ± 0.029 | 0.746 ± 0.053 | 0.565 ± 0.021 | 0.537 ± 0.06 | 0.921 ± 0.03 | 0.919 ± 0.051 | 0.933 ± 0.039 | 0.924 ± 0.02 | 0.9877 ± 0.005 | 0.9757 ± 0.0032 | 0.981 ± 0.012 | 0.977 ± 0.029
CASKI CERVIX | 0.927 ± 0.03 | 0.907 ± 0.022 | 0.953 ± 0.056 | 0.982 ± 0.042 | 0.996 ± 0.013 | 0.941 ± 0.05 | 0.751 ± 0.035 | 0.602 ± 0.014 | 0.945 ± 0.0061 | 0.899 ± 0.053 | 0.9873 ± 0.0035 | 0.979 ± 0.027 | 1.04 ± 0.074 | 1.05 ± 0.026 | 0.972 ± 0.042 | 0.988 ± 0.05
CHLA90 AUTONOMIC GANGLIA | 0.906 ± 0.053 | 1.02 ± 0.046 | 0.892 ± 0.058 | 0.9023 ± 0.0046 | 0.907 ± 0.036 | 0.912 ± 0.022 | 0.7 ± 0.035 | 0.598 ± 0.072 | 1.02 ± 0.018 | 1.05 ± 0.043 | 1 ± 0.039 | 0.923 ± 0.025 | 0.987 ± 0.049 | 1.01 ± 0.019 | 1.06 ± 0.022 | 1.02 ± 0.066
CME SYNOVIAL | 1.08 ± 0.089 | 1.254 ± 0.0095 | 1.24 ± 0.14 | 1.25 ± 0.16 | 1.18 ± 0.1 | 1.22 ± 0.05 | 1.06 ± 0.068 | 0.969 ± 0.11 | 1.18 ± 0.1 | 1.29 ± 0.17 | 1.32 ± 0.16 | 1.24 ± 0.13 | 1.36 ± 0.16 | 1.44 ± 0.19 | 1.4 ± 0.073 | 1.22 ± 0.09
COLO320DM LARGE INTESTINE | 0.959 ± 0.04 | 1.14 ± 0.037 | 1.11 ± 0.08 | 1.05 ± 0.072 | 1.06 ± 0.064 | 1.1 ± 0.11 | 1.03 ± 0.068 | 1.1 ± 0.041 | 1.11 ± 0.093 | 1.07 ± 0.019 | 1.08 ± 0.079 | 1.1 ± 0.16 | 1.15 ± 0.16 | 1.21 ± 0.069 | 1.12 ± 0.065 | 1.19 ± 0.17
DU4475 BREAST | 0.845 ± 0.2 | 0.76 ± 0.22 | 0.743 ± 0.13 | 0.795 ± 0.19 | 0.814 ± 0.16 | 0.762 ± 0.11 | 0.702 ± 0.2 | 0.703 ± 0.18 | 0.825 ± 0.3 | 0.909 ± 0.2 | 1 ± 0.52 | 1.13 ± 0.49 | 0.965 ± 0.39 | 1.12 ± 0.51 | 0.832 ± 0.42 | 0.673 ± 0.47
H23 LUNG | 0.958 ± 0.041 | 0.998 ± 0.065 | 0.96 ± 0.053 | 1.01 ± 0.054 | 0.983 ± 0.02 | 1.02 ± 0.013 | 1.02 ± 0.029 | 1.02 ± 0.079 | 1.02 ± 0.062 | 1.01 ± 0.056 | 1.02 ± 0.034 | 1.04 ± 0.048 | 1.08 ± 0.055 | 1.09 ± 0.085 | 1.05 ± 0.044 | 0.912 ± 0.031
HCC78 LUNG | 0.977 ± 0.31 | 0.856 ± 0.038 | 0.997 ± 0.23 | 0.968 ± 0.07 | 0.935 ± 0.19 | 0.917 ± 0.093 | 0.964 ± 0.097 | 0.941 ± 0.084 | 1 ± 0.075 | 0.918 ± 0.053 | 0.918 ± 0.19 | 0.883 ± 0.18 | 0.946 ± 0.12 | 0.877 ± 0.11 | 0.889 ± 0.12 | 0.941 ± 0.07
HCC202 BREAST | 1.05 ± 0.052 | 1.31 ± 0.39 | 1.3 ± 0.53 | 1.22 ± 0.13 | 1.27 ± 0.32 | 1.41 ± 0.073 | 1.13 ± 0.14 | 1.24 ± 0.061 | 1.1 ± 0.15 | 1.07 ± 0.14 | 1.14 ± 0.14 | 1.15 ± 0.17 | 1.2 ± 0.12 | 1.27 ± 0.13 | 1.23 ± 0.16 | 1.23 ± 0.21
